Patent US11021467B2, “Phosphatidylinositol 3-kinase inhibitors” (Gilead Sciences, Inc., priority 2014, dated 2021)

Columns and labels:
Experiment in all cases: TR-FRET enzymatic activity assay against PI3K isoforms
Format in all cases: biochemical
[1] = biological target: PI3Kβ (Homo sapiens (Human), UniProt P42338); conditions: PI3Kβ, TR-FRET, 2×Km ATP, 30 minutes at 25° C.
Source text: (§1) The compounds of formula (I) were characterized for their enzymatic activity against the PI3K isoforms. […] TR-FRET monitored the formation of 3,4,5-inositol triphosphate molecule that competed with fluorescently labeled PIP3 for binding to the GRP-1 pleckstrin homology domain protein.

[2] = biological target: PI3Kγ (Homo sapiens (Human), UniProt P48736); conditions: 2×Km ATP, 30 minutes at 25° C.
Sequence of PI3Kγ (P48736 whole entry): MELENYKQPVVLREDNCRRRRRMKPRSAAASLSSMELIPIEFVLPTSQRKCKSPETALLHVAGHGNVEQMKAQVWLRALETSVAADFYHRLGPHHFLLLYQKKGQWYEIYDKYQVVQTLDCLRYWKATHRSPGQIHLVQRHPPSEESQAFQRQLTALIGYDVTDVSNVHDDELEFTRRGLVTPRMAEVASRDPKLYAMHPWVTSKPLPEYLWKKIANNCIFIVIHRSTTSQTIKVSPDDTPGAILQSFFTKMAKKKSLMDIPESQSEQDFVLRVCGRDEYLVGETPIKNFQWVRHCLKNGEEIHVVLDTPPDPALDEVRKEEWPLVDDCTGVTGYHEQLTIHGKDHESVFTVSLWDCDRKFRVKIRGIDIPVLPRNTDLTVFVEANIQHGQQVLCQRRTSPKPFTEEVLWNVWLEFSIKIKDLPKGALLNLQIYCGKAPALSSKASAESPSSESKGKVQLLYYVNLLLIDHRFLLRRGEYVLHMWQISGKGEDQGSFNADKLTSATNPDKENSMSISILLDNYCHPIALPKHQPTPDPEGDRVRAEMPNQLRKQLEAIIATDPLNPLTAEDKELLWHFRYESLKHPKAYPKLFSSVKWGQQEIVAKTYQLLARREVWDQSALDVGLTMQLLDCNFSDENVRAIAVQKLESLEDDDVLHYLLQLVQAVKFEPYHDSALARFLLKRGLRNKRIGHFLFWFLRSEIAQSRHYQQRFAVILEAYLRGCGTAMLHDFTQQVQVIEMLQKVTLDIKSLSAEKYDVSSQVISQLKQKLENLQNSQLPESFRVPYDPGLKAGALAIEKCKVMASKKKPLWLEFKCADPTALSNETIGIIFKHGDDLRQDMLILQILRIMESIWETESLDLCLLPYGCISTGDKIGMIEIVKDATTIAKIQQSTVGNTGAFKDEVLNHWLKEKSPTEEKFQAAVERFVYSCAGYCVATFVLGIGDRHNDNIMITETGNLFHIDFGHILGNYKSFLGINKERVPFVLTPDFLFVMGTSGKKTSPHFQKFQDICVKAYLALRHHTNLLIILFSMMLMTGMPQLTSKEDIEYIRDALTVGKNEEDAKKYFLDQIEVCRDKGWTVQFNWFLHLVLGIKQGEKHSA
Source text: as §1

[3] = biological target: PI3Kδ (Homo sapiens (Human), UniProt O00329); conditions: 2×Km ATP, 30 minutes at 25° C.
Sequence of PI3Kδ (O00329 whole entry): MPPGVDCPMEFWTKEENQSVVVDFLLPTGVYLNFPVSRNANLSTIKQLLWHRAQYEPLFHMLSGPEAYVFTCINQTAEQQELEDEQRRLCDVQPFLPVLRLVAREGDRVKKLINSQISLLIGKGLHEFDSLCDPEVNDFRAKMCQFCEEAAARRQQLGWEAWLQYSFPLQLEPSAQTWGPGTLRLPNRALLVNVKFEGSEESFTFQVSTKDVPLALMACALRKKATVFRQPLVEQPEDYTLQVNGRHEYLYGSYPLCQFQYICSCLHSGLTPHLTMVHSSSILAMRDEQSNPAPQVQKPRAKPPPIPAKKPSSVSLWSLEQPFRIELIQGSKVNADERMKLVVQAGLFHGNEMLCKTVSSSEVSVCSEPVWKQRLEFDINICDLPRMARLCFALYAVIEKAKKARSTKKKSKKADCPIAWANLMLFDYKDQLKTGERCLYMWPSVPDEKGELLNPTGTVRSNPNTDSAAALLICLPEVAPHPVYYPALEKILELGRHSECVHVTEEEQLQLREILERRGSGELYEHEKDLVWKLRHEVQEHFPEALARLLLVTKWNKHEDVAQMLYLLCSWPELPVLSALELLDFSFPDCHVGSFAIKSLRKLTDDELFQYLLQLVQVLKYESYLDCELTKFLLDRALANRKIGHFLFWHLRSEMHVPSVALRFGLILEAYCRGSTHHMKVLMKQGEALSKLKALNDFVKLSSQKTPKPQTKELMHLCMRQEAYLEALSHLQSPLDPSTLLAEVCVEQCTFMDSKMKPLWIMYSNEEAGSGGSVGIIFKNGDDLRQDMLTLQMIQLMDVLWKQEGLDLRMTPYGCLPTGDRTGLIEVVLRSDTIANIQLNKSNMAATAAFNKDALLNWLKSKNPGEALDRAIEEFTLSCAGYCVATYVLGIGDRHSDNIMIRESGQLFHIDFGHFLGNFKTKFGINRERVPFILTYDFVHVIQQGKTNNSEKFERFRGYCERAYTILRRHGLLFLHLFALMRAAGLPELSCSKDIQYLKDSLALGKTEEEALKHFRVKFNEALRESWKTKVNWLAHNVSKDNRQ
Sequence of PI3Kδ (P27986 whole entry partner): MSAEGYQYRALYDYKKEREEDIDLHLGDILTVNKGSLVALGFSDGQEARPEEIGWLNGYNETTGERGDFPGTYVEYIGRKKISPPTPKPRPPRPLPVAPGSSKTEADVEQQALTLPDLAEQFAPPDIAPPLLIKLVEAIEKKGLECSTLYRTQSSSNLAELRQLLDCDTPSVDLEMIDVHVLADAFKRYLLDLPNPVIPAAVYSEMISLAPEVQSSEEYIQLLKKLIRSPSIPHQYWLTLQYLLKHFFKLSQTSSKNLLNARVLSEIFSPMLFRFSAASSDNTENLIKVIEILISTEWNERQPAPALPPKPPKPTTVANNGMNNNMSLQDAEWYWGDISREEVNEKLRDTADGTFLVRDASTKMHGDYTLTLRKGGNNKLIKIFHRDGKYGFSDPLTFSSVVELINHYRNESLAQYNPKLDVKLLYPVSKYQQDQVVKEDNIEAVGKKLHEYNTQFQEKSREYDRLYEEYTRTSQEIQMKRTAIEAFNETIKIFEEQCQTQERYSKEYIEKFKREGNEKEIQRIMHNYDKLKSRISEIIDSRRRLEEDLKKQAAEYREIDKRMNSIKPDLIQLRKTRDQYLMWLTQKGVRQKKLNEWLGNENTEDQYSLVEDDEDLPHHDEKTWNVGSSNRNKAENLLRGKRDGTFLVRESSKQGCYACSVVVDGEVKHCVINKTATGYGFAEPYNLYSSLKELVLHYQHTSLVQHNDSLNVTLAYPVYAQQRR
Source text: as §1

Sequence of PI3Kβ (P42338 whole entry, the tested form may be a part, canonical isoform): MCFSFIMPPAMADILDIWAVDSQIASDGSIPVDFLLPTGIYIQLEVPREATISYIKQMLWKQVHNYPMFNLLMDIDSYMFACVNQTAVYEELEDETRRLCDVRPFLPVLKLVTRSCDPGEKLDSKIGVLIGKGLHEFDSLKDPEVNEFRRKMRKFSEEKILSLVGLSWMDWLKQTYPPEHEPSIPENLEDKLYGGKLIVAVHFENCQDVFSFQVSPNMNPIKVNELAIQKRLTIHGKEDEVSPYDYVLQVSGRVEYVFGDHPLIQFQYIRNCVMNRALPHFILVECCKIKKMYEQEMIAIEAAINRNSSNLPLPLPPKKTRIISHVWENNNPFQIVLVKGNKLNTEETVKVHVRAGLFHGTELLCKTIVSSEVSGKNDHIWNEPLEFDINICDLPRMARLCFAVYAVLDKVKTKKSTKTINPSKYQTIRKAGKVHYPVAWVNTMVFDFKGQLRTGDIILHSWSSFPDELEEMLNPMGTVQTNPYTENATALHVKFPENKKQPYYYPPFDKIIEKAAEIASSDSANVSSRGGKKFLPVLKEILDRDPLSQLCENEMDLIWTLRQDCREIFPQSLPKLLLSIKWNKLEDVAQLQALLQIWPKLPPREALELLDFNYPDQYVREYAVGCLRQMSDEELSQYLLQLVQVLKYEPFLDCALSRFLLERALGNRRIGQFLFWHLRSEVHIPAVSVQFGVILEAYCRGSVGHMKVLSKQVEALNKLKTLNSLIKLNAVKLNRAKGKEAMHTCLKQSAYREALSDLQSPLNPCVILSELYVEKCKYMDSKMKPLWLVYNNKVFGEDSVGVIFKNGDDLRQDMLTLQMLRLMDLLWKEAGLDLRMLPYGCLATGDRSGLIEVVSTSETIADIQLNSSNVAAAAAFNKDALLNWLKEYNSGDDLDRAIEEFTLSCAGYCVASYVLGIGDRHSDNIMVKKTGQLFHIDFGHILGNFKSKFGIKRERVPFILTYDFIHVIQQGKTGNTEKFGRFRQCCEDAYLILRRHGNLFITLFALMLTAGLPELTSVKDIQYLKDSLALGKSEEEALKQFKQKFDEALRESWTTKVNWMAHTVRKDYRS
Sequence of PI3Kβ (P27986 whole entry partner, the tested form may be a part, canonical isoform): as the sequence (P27986 whole entry partner) above

SMILES	IC50 [1] [nM]	IC50 [2] [nM]	IC50 [3] [nM]
C[C@H](Nc1nc(N)nc(N)c1C#N)c1nc2cccc(Cl)c2c(=O)n1C[C@@H]1CCNC1 [Compound 126, 2,4-diamino-6-(((S)-1-(5-chloro-4-oxo-3-((R)-pyrrolidin-3-ylmethyl)-3,4-dihydroquinazolin-2-yl)ethyl)amino)pyrimidine-5-carbonitrile]	24	2500	0.9
C[C@H](Nc1nc(N)nc(N)c1C#N)c1nc2cccc(Cl)c2c(=O)n1CCCN1CCOCC1 [Compound 127, (S)-2,4-diamino-6-((1-(5-chloro-3-(3-morpholinopropyl)-4-oxo-3,4-dihydroquinazolin-2-yl)ethyl)amino)pyrimidine-5-carbonitrile]	130	720	2
C[C@H](Nc1nc(N)nc(N)c1C#N)c1nc2cccc(Cl)c2c(=O)n1CCC(=O)N(C)C [Compound 128, (S)-3-(5-chloro-2-(1-((2,6-diamino-5-cyanopyrimidin-4-yl)amino)ethyl)-4-oxoquinazolin-3(4H)-yl)-N,N-dimethylpropanamide]	530	280	15
COC(C)(C)CCn1c([C@H](C)Nc2nc(N)nc(N)c2C#N)nc2cccc(Cl)c2c1=O [Compound 129, (S)-2,4-diamino-6-((1-(5-chloro-3-(3-methoxy-3-methylbutyl)-4-oxo-3,4-dihydroquinazolin-2-yl)ethyl)amino)pyrimidine-5-carbonitrile]	290	530	2
CCOCCn1c([C@H](C)Nc2nc(N)nc(N)c2C#N)nc2cccc(Cl)c2c1=O [Compound 130, (S)-2,4-diamino-6-((1-(5-chloro-3-(2-ethoxyethyl)-4-oxo-3,4-dihydroquinazolin-2-yl)ethyl)amino)pyrimidine-5-carbonitrile]	120	410	3
COCC(COC)n1c([C@H](C)Nc2nc(N)nc(N)c2C#N)nc2cccc(Cl)c2c1=O [Compound 131, (S)-2,4-diamino-6-((1-(5-chloro-3-(1,3-dimethoxypropan-2-yl)-4-oxo-3,4-dihydroquinazolin-2-yl)ethyl)amino)pyrimidine-5-carbonitrile]	210	1400	13
COC[C@H](C)n1c([C@H](C)Nc2nc(N)nc(N)c2C#N)nc2cccc(Cl)c2c1=O [Compound 132, 2,4-diamino-6-(((S)-1-(5-chloro-3-((S)-1-methoxypropan-2-yl)-4-oxo-3,4-dihydroquinazolin-2-yl)ethyl)amino)pyrimidine-5-carbonitrile]	58	330	2
C[C@H](Nc1ncnc(N)c1C#N)c1nc2cccc(Cl)c2c(=O)n1CCCN1CCCCC1 [Compound 134, (S)-4-amino-6-((1-(5-chloro-4-oxo-3-(3-(piperidin-1-yl)propyl)-3,4-dihydroquinazolin-2-yl)ethyl)amino)pyrimidine-5-carbonitrile]	550	≥ 10000	4
C[C@H](Nc1ncnc(N)c1C#N)c1nc2cccc(Cl)c2c(=O)n1CCCN1CCN(C)CC1 [Compound 135, (S)-4-amino-6-((1-(5-chloro-3-(3-(4-methylpiperazin-1-yl)propyl)-4-oxo-3,4-dihydroquinazolin-2-yl)ethyl)amino)pyrimidine-5-carbonitrile]	640	≥ 10000	6
C[C@H](Nc1ncnc(N)c1C#N)c1nc2cccc(Cl)c2c(=O)n1CCN1CCCC1 [Compound 136, (S)-4-amino-6-((1-(5-chloro-4-oxo-3-(2-(pyrrolidin-1-yl)ethyl)-3,4-dihydroquinazolin-2-yl)ethyl)amino)pyrimidine-5-carbonitrile]	990	≥ 10000	25
C[C@H](Nc1nc(N)nc(N)c1C#N)c1nc2cccc(Cl)c2c(=O)n1CCN1CCCC1 [Compound 137, (S)-2,4-diamino-6-((1-(5-chloro-4-oxo-3-(2-(pyrrolidin-1-yl)ethyl)-3,4-dihydroquinazolin-2-yl)ethyl)amino)pyrimidine-5-carbonitrile]	760	≥ 10000	27
C[C@H](Nc1nc(N)nc(N)c1C#N)c1nc2cccc(Cl)c2c(=O)n1CCc1ccn[nH]1 [Compound 140, (S)-4-((1-(3-(2-(1H-pyrazol-5-yl)ethyl)-5-chloro-4-oxo-3,4-dihydroquinazolin-2-yl)ethyl)amino)-2,6-diaminopyrimidine-5-carbonitrile]	410	590	6
C[C@H](Nc1ncnc(N)c1C#N)c1nc2cccc(Cl)c2c(=O)n1C[C@@H](O)CO [Compound 142]	527	≥ 10000	87
C[C@H](Nc1ncnc(N)c1C#N)c1nc2cccc(Cl)c2c(=O)n1C[C@H](O)CO [Compound 143]	374	4240	34
